Measurements published in PubChem BioAssay (NCI).
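How tested: cells in 96-well plates exposed to compound for 48 hours at five concentrations. TGI: concentration producing complete growth inhibition.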

Tests used:
Assay in all cases: NCI tumour cell line growth inhibition, 48 h
[1] = system: SNB-78 CNS
[2] = system: UACC-62 melanoma
[3] = system: DMS 114 small cell lung
[4] = system: COLO 205 colon
[5] = system: MOLT-4 leukemia
[6] = system: DMS 273 small cell lung
[7] = system: SNB-19 CNS
[8] = system: HOP-92 NSCLC
[9] = system: SW-620 colon
[10] = system: KM20L2 colon
[11] = system: SF-539 CNS
[12] = system: CAKI-1 renal
[13] = system: OVCAR-8 ovarian
[14] = system: HCC-2998 colon
[15] = system: XF 498 CNS
[16] = system: SK-MEL-28 melanoma
[17] = system: NCI/ADR-RES ovarian
[18] = system: NCI-H23 lung
[19] = system: CCRF-CEM leukemia
[20] = system: OVCAR-3 ovarian
[21] = system: SF-268 CNS
[22] = system: UO-31 renal
[23] = system: HT29 colon
[24] = system: LOX IMVI melanoma
[25] = system: NCI-H460 lung
[26] = system: RXF 393 renal
[27] = system: U251 CNS
[28] = system: A549 NSCLC
[29] = system: DLD-1 colon
[30] = system: SF-295 CNS
[31] = system: HL-60(TB) leukemia
[32] = system: UACC-257 melanoma
[33] = system: HCT-15 colon
[34] = system: HCT-116 colon
[35] = system: SNB-75 CNS
[36] = system: HOP-18 NSCLC
[37] = system: A498 renal
[38] = system: IGROV1 ovarian
[39] = system: MCF7 breast
[40] = system: NCI-H226 lung
[41] = system: M19-MEL melanoma
[42] = system: OVCAR-4 ovarian
[43] = system: P388/ADR leukemia
[44] = system: MALME-3M melanoma
[45] = system: SN12C renal
[46] = system: EKVX NSCLC
[47] = system: SK-MEL-2 melanoma
[48] = system: OVCAR-5 ovarian
[49] = system: SK-MEL-5 melanoma
[50] = system: NCI-H522 lung
[51] = system: TK-10 renal
[52] = system: 786-0 renal
[53] = system: RXF-631 renal
[54] = system: KM12 colon
[55] = system: ACHN renal
[56] = system: SK-OV-3 ovarian
[57] = system: HOP-62 NSCLC
[58] = system: K-562 leukemia
[59] = system: LXFL 529 NSCLC
[60] = system: M14 melanoma
[61] = system: SR leukemia
[62] = system: SN12K1 renal
[63] = system: P388 leukemia
[64] = system: RPMI-8226 leukemia

SMILES: O=C1c2cccc3cc4ccccc4c(c23)C(=O)N1CCNCCNCCNCCN1C(=O)c2cccc3cc4ccccc4c(c23)C1=O
- TGI [1]: 0.385 µM
- TGI [2]: 0.156 µM
- TGI [3]: 0.177 µM
- TGI [4]: 0.184 µM
- TGI [5]: 0.212 µM
- TGI [6]: 0.159 µM
- TGI [7]: 0.927 µM
- TGI [8]: 0.254 µM
- TGI [9]: 0.308 µM
- TGI [10]: 0.597 µM
- TGI [11]: 0.288 µM
- TGI [12]: 0.344 µM
- TGI [13]: 0.735 µM
- TGI [14]: 0.0829 µM
- TGI [15]: 0.178 µM
- TGI [16]: 0.324 µM
- TGI [17]: 1.53 µM
- TGI [18]: 0.159 µM
- TGI [19]: 0.637 µM
- TGI [20]: 0.546 µM
- TGI [21]: 0.197 µM
- TGI [22]: 0.36 µM
- TGI [23]: 0.552 µM
- TGI [24]: 0.155 µM
- TGI [25]: 0.0233 µM
- TGI [26]: 0.0435 µM
- TGI [27]: 0.539 µM
- TGI [28]: 1 µM
- TGI [29]: 0.344 µM
- TGI [30]: 0.281 µM
- TGI [31]: 0.212 µM
- TGI [32]: 0.767 µM
- TGI [33]: 0.474 µM
- TGI [34]: 1.11 µM
- TGI [35]: 0.106 µM
- TGI [36]: 0.398 µM
- TGI [37]: 0.566 µM
- TGI [38]: 1.22 µM
- TGI [39]: 1.87 µM
- TGI [40]: > 100 µM
- TGI [41]: 0.161 µM
- TGI [42]: 0.314 µM
- TGI [43]: 0.47 µM
- TGI [44]: 0.78 µM
- TGI [45]: 1.41 µM
- TGI [46]: 0.666 µM
- TGI [47]: 0.252 µM
- TGI [48]: 0.672 µM
- TGI [49]: 0.578 µM

SMILES: Cc1ccnc(NS(=O)(=O)c2ccc(NC3=CC(=O)C(=O)c4ccccc43)cc2)n1
- TGI [50]: > 100 µM
- TGI [1]: > 100 µM
- TGI [2]: > 100 µM
- TGI [3]: > 100 µM
- TGI [4]: > 100 µM
- TGI [51]: > 100 µM
- TGI [5]: > 100 µM
- TGI [6]: > 100 µM
- TGI [7]: > 100 µM
- TGI [52]: > 100 µM
- TGI [53]: > 100 µM
- TGI [9]: > 100 µM
- TGI [54]: > 100 µM
- TGI [10]: > 100 µM
- TGI [11]: > 100 µM
- TGI [12]: > 100 µM
- TGI [13]: > 100 µM
- TGI [14]: > 100 µM
- TGI [15]: > 100 µM
- TGI [16]: > 100 µM
- TGI [18]: > 100 µM
- TGI [19]: > 100 µM
- TGI [55]: > 100 µM
- TGI [56]: > 100 µM
- TGI [20]: > 100 µM
- TGI [21]: > 100 µM
- TGI [57]: > 100 µM
- TGI [22]: > 100 µM
- TGI [23]: > 100 µM
- TGI [24]: > 100 µM
- TGI [25]: > 100 µM
- TGI [26]: > 100 µM
- TGI [58]: > 100 µM
- TGI [27]: > 100 µM
- TGI [28]: > 100 µM
- TGI [29]: > 100 µM
- TGI [30]: > 100 µM
- TGI [31]: > 100 µM
- TGI [59]: > 100 µM
- TGI [60]: > 100 µM
- TGI [32]: > 100 µM
- TGI [33]: > 100 µM
- TGI [34]: > 100 µM
- TGI [35]: > 100 µM
- TGI [36]: > 100 µM
- TGI [37]: > 100 µM
- TGI [38]: > 100 µM
- TGI [40]: > 100 µM
- TGI [41]: > 100 µM
- TGI [42]: > 100 µM
- TGI [61]: > 100 µM
- TGI [44]: > 100 µM
- TGI [45]: > 100 µM
- TGI [46]: > 100 µM
- TGI [47]: > 100 µM
- TGI [48]: > 100 µM
- TGI [49]: > 100 µM

SMILES: Nc1nc(N)nc(-c2ccccc2NS(=O)(=O)c2ccc([N+](=O)[O-])cc2)n1
- TGI [50]: > 100 µM
- TGI [1]: > 100 µM
- TGI [2]: > 100 µM
- TGI [3]: > 100 µM
- TGI [4]: > 31.6 µM
- TGI [5]: > 100 µM
- TGI [62]: > 100 µM
- TGI [6]: > 100 µM
- TGI [7]: > 100 µM
- TGI [8]: > 100 µM
- TGI [9]: > 100 µM
- TGI [54]: > 100 µM
- TGI [10]: > 100 µM
- TGI [11]: > 100 µM
- TGI [12]: > 34.6 µM
- TGI [13]: > 100 µM
- TGI [14]: > 100 µM
- TGI [15]: 63.5 µM
- TGI [16]: > 100 µM
- TGI [17]: > 100 µM
- TGI [18]: > 100 µM
- TGI [19]: > 100 µM
- TGI [56]: > 100 µM
- TGI [20]: > 100 µM
- TGI [21]: > 100 µM
- TGI [57]: > 100 µM
- TGI [22]: > 100 µM
- TGI [23]: > 100 µM
- TGI [24]: > 100 µM
- TGI [25]: > 100 µM
- TGI [26]: > 100 µM
- TGI [27]: > 100 µM
- TGI [28]: > 100 µM
- TGI [29]: > 100 µM
- TGI [30]: > 100 µM
- TGI [31]: 61.5 µM
- TGI [32]: > 100 µM
- TGI [33]: > 100 µM
- TGI [34]: > 100 µM
- TGI [35]: > 90.6 µM
- TGI [36]: > 100 µM
- TGI [37]: > 100 µM
- TGI [38]: > 100 µM
- TGI [39]: > 100 µM
- TGI [40]: > 100 µM
- TGI [41]: > 100 µM
- TGI [42]: > 100 µM
- TGI [43]: > 100 µM
- TGI [44]: > 100 µM
- TGI [45]: > 100 µM
- TGI [46]: > 100 µM
- TGI [63]: > 100 µM
- TGI [47]: > 100 µM
- TGI [48]: > 100 µM
- TGI [49]: > 84.8 µM
- TGI [64]: > 100 µM
